Key:
erectile dysfunction = conditions: men with erectile dysfunction; cited from earlier work
[1] = Absorption and biological stability after gavage in Wistar rats; format: in vivo, rat; conditions: Ang-(1-7) peptide alone, gavage 100 μg/50 μl
Protocol: Assays for determining absorption and biological stability of the Ang-(1-7)/HPβ-CD inclusion complex were made in aqueous solution. Twelve normal Wistar rats properly prepared were used to carry out the experiments. The animals were divided in 3 experimental groups and subjected to a gavage procedure with a salt solution (0.9%/50 μl) of Ang-(1-7) (100 μg/50 μl) and Ang-(1-7)/HPβ-CD (100 μg/50 μl). Four blood samples (1 ml, each) from the animals were collected. The first collection occurred before gavage procedure, and the remaining three 2, 6 and 24 hours post gavage.

erectile function of SHR = experiment: Erectile function (CCP/MAP) of SHR chronically treated orally; format: in vivo, rat; conditions: chronic oral treatment, drug alone, 1.5 V
Protocol: Eight weeks post-treatment with Ang-(1-7)/HPβ-CD Inclusion Complex and/or Atenolol, the erectile function of the animals (SHR, spontaneously hypertensive rats) was evaluated. Particularly, erectile function of animals chronically treated with Atenolol was evaluated after concurrent administration with Ang-(1-7)/HPβ-CD Inclusion Complex. The drugs were orally administered via solutions containing them, alone or in combination. As a control, a group of animals was treated with HPβ-CD.
The procedure for inducing erection and intracavernosal pressure measurement was made as previously described (see, T. M. Mills, R. W. Lewis, V. S. Stopper, Biol Reprod 59, 1413 (December, 1998). Firstly, the animals (SHR) were anesthetized with intraperitoneal urethane (140 mg/kg) and placed on a thermal plate to maintain body temperature at 37° C. A polyethylene cannule was introduced into the animal trachea to keep respiratory patency. Following, the rat left femoral artery was cannulated with a polyethylene tube (PE-50) with heparinized saline (200 U/ml) for continuous monitoring of mean arterial pressure (MAP). The catheter was connected to a pressure transducer. The penial erection was obtained by applying electric stimulation on the major pelvic ganglion (MPG). […]

[2] = tested on: rat ganglionic-stimulated erectile response; experiment: Ganglionic-stimulated changes in CCP/MAP after intracavernosal drug administration in anesthetized rats; format: in vivo
Protocol: Normotensive and DOCA-salt hypertensive rats, Mas−/− and WT mice were anesthetized with intraperitoneal urethane (140 mg/Kg). The rat left femoral artery and mice […] was cannulated for continuous monitoring of mean arterial pressure (MAP). The shaft of the penis was freed of skin and fascia, and the right corpus cavernosum was cannulated by insertion of a 30-gauge needle connected to a pressure transducer, permitting continuous monitoring of corpus cavernosum pressure (CCP) as described elsewhere (see, e.g., T. M. Mills, et al., Biol Reprod 59, 1413 (December, 1998)). The rat left corpus cavernosum was cannulated with 30-gauge needles attached to 10-μL syringes via short lengths of polyethylene (PE)-10 tubing and used for administration of vasoactive drugs. The abdominal cavity was opened, exposing the right major pelvic ganglion (MPG), and silver bipolar electrodes were positioned on it. […]
In order to evaluate the role of the Ang-(1-7) released endogenously, it was first determined the minimal stimuli in which the maximal value of the CCP/MAP was achieved. […]
To evaluate the effect of Ang-(1-7) on ganglionic-stimulated CCP/MAP rise in the presence of NOS inhibition, a sub-maximal stimulus was determined and applied to the MPG. […] Thereafter, Ang-(1-7) was administered and sub-maximal stimulus was applied while CCP/MAP was continuously recorded.

AT1 = target: T1, AT1 (Homo sapiens, UniProt P30556); conditions: receptor AT1; cited from earlier work
T1 sequence (P30556 1-359): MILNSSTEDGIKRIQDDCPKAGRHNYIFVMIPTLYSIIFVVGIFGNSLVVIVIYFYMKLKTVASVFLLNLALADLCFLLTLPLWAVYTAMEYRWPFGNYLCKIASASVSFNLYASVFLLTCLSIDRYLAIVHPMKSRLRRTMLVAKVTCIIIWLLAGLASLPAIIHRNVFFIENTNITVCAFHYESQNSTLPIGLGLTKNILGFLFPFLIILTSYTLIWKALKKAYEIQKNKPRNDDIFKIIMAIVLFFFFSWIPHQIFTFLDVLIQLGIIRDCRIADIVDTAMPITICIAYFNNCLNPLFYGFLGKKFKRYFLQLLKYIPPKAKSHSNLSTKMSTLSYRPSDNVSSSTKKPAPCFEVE

CCCCC[C@H](O)/C=C/[C@H]1[C@H](O)CC(=O)[C@@H]1CCCCCCC(=O)O [ALPROSTADIL®]
patients in whom the treatment is effective (erectile dysfunction): over 80%

CC[C@H](C)[C@H](NC(=O)[C@H](Cc1ccc(O)cc1)NC(=O)[C@@H](NC(=O)[C@H](CCCNC(=N)N)NC(=O)[C@@H](N)CC(=O)O)C(C)C)C(=O)N[C@@H](Cc1c[nH]cn1)C(=O)N1CCC[C@H]1C(=O)O [Ang-(1-7), Asp-Arg-Val-Tyr-Ile-His-Pro]
increase of plasmatic peptide concentration relative to Ang-(1-7)/HPβ-CD [1]: about 8 fold lower

CC(C)NCC(O)COc1ccc(CC(N)=O)cc1 (stereo not drawn) [Atenolol, atenolol]
effect on intracavernosal pressure rise induced by stimulation of the major pelvic ganglion (erectile function of SHR): reduced

COC(=O)[C@@H](N)CCCNC(=N)N[N+](=O)[O-] [L-NAME, Nw-nitro-L-arginine methyl ester]
CCP/MAP induced by submaximal stimulus ([2]; L-NAME 200 μg/Kg intracavernosal, mean±s.e.m., n=6, control 0.57±0.06, P<0.05): 0.38±0.05 | effect on baseline CCP or MAP ([2]; administration into left cavernosal sinuses): did not alter

Des-Asp1-Ang I: angiotensin listed in Table 1, acting on AT1 (RVYIHPFHL; Angiotensin-1; UniProt P01019 26-34, looked up, fragment)
Actions (AT1): Inhibition of Ang II-induced cell
